Data reported in article PMC9097471, “Development of Selective Phosphatidylinositol 5-Phosphate 4-Kinase γ Inhibitors with a Non-ATP-competitive, Allosteric Binding Mode” (Journal of Medicinal Chemistry, 2022).
In brackets after ≈: the same amount, converted by molar mass.

Legend:
[1] = Kinetic solubility; type: physicochemical; conditions: PBS buffer, PBS pH 7.4
Procedure: Kinetic solubility analysis was performed by Charles River Laboratories Inc. (ADME-SOP-01). Compound in
DMSO at 10 mM was diluted to 200 µM in both DMSO and buffer (0.1 M PBS, pH 7.4, 2% DMSO final), and
an aliquot of the 200 µM DMSO solution was diluted to 10 µM, and all dilutions were equilibrated for 2 hours. […]
Compound 9 was purchased from Am binter (Amb16536894) and was determined by UPLC to have purity >95%.
All other compounds were synthesised as described below , and all tested compounds have purity >95% by UPLC

[2] = biological target: T1, PI5P4Kβ (Homo sapiens, UniProt P78356); assay: KINOMEscan KD (Eurofins Discovery, DiscoverX); type: binding
T1 sequence (P78356 1-416): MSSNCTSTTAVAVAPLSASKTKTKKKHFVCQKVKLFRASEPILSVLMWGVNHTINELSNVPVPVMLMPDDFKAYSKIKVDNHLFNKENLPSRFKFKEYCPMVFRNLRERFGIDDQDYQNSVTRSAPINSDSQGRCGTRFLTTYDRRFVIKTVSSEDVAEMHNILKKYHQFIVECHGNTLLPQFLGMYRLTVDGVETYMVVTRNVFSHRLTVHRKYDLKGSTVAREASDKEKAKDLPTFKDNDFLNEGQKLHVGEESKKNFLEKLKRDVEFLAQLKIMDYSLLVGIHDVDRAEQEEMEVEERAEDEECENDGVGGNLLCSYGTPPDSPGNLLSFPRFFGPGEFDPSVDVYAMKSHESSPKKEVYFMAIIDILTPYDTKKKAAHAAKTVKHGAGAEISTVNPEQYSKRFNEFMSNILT
Procedure: (§1) a Data were generated at Eurofins Discovery using DiscoverX KINOMEscanTM technology. Streptavidin-coated magnetic beads were treated with biotinylated small molecule ligands for 30 minutes at room temperature to generate affinity resins for kinase assays. The liganded beads were blocked with excess biotin and washed with blocking buffer (SeaBlock (Pierce), 1% BSA, 0.05% Tween 20, 1 mM DTT) to remove unbound ligand and to reduce non-specific binding. Binding reactions were assembled by combining kinases, liganded affinity beads, and test compounds in 1x binding buffer (20% SeaBlock, 0.17x PBS, 0.05% Tween 20, 6 mM DTT). Test compounds were prepared as 111X stocks in 100% DMSO. Kds were determined using an 11-point 3-fold compound dilution series with three DMSO control points. All compounds for Kd measurements are distributed by acoustic transfer (non-contact dispensing) in 100% DMSO. The compounds were then diluted directly into the assays such that the final concentration of DMSO was 0.9%. All reactions performed in polypropylene 384-well plate. Each was a final volume of 0.02 ml. The assay plates were incubated at room temperature with shaking for […]
(§2) room temperature with shaking for 30 minutes. The kinase concentration in the eluates was measured by qPCR. […]

[3] = biological target: T2, PI5P4Kγ-WT (Homo sapiens, UniProt Q8TBX8); assay: KINOMEscan KD (Eurofins Discovery, DiscoverX); type: binding
T2 sequence (Q8TBX8 1-421): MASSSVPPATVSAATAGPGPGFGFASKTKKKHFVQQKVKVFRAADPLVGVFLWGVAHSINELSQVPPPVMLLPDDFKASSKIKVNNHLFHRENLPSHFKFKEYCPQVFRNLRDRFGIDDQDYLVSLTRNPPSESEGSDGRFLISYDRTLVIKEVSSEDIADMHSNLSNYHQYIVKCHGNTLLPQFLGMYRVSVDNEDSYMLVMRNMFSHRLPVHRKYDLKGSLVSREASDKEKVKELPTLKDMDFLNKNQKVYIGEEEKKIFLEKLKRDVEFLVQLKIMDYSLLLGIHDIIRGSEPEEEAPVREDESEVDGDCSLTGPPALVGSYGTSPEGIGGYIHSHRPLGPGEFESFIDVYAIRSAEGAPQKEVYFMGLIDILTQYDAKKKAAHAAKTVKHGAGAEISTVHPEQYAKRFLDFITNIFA
Procedure: as §1, §2

[4] = biological target: T2, PI5P4Kγ-WT; assay: InCell Pulse cellular target engagement (thermal stabilisation) in HEK293 cells; type: cell-based
Procedure: The binding of compounds to PI5P4Kγ in intact cells was assessed using an InCell Pulse thermal stabilisation assay (DiscoverX). […] The plate was then incubated for 60 min in the dark prior to luminescence reading using a Pherastar FSX plate reader (BMG Labtech).
Statistical analysis was performed using nonparametric testing in Prism 8 (GraphPad). Activity pIC50 values and in vivo binding pEC50 values were estimated using a 4-parameter fit (Dotmatics).

[5] = biological target: T3, PI5P4Kβ-WT (Homo sapiens, UniProt P78356); assay: ADP-Glo inhibition assay; conditions: ADP-Glo
T3 sequence (P78356 1-416): T1 sequence (P78356 1-416)
Text: To enable direct comparisons, Promega’s ADP-Glo reporter assay was developed using a mutant form of the kinase. […] To mitigate concerns about being misled by the use of the PI5P4Kγ+ construct and the possible introduction of PI5P4Kα activity into the molecules, our screening cascade included the measurement of ADP-Glo activity at PI5P4Kα-WT (and PI5P4Kβ-WT to fully understand emerging selectivity profiles).

[6] = biological target: T4, PI5P4Kα (Homo sapiens, UniProt P48426); assay: Adapta TR-FRET assay (Thermo Fisher); type: biochemical; design: purchased Thermo Fisher
T4 sequence (P48426 1-406): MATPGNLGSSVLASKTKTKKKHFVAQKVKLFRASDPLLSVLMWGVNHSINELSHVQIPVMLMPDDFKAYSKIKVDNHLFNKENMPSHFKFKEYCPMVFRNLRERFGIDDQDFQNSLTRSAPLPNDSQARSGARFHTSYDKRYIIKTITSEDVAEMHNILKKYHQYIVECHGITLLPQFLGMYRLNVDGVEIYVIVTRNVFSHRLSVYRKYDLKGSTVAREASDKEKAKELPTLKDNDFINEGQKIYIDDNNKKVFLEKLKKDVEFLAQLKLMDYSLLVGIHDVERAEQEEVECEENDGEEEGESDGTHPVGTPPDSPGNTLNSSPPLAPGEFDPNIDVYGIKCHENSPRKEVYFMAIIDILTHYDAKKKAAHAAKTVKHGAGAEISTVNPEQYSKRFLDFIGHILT
Procedure: Table S7. PI5P4Kα adapta assay results for compounds 1 and 40.a
Compound PI5P4Kα adapta IC50 (nM) […]
a The experiments were run by Thermo Fisher. This assay is a TR-FRET based assay using an Eu-anti-ADP antibody, the conditions are: the 2X PIP4Kα/PI(5)P mixture is prepared in 50 mM HEPES pH 7.5, 0.1% CHAPS, 1 mM EGTA, 4 mM MgCl2. The final 10 μL Kinase Reaction consists of 1.5 - 6 ng PIP4Kα and 50 μM PI(5)P in 32.5 mM HEPES pH 7.5, 0.05% CHAPS, 0.5 mM EGTA, 2 mM MgCl2. After the 1 hour Kinase Reaction incubation, 5 μL of Detection Mix is added. The Detection mix consists of EDTA (30mM), Eu-anti-ADP antibody (6 nM) and ADP tracer in TR-FRET buffer. The detection mix contains the EC60 concentration of tracer for 5-

IC50 ([4]; InCell Pulse, new data) [µM]	IC50 ([5]; read-out: PI5P4Kβ IC50, new data) [µM]	Compound	solubility at 2 h [1] [µM]	Kd [2] [µM]	Kd [3] [µM]	PI5P4Kβ pIC50 [5]	IC50 [6] [µM]	cellular target engagement with PI5P4Kγ-WT ([4]; InCell Pulse)	Target engagement PI5P4Kγ WT pIC50 ([4]; InCell Pulse in intact cells)
2.5	> 25	FC(F)(F)c1ccccc1-c1nc(NCc2cccs2)c2ccccc2n1 [Compound 1, NIH-12848, reference compound]	< 5	> 30	4	<4.6	> 30		
		CC(C)c1ccccc1-c1nc(NCc2ccccn2)c2c(ccn2C)n1 [Compound 40]	7 (≈ 2.5 µg/mL)	> 30	0.068	<4.6	> 30	submicromolar activity	6.1
